Experimental data from article PMC6775094, “A robust bacterial assay for high-throughput screening of human 4-hydroxyphenylpyruvate dioxygenase inhibitors” (Scientific Reports, 2019).

Target: T1, 4-hydroxyphenylpyruvate dioxygenase (HPD) (Homo sapiens, UniProt P32754)
T1 construct: wild type human HPD (NM_002150.2), pET42b(+), expressed in E. coli C43 (DE3)
Experiment: cell-based

T1 sequence (P32754 2-393): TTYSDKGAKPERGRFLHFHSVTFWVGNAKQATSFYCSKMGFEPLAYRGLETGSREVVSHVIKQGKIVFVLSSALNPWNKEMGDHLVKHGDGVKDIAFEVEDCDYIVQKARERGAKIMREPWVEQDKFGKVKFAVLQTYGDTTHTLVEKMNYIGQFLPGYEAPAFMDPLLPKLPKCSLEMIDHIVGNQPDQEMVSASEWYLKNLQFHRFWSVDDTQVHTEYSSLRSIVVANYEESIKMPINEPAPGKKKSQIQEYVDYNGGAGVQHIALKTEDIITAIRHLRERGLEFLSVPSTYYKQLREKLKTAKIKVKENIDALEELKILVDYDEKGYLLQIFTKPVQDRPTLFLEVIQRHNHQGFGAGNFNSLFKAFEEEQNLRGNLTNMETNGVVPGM

Which IC50 does the source give for CS(=O)(=O)c1ccc(C(=O)C2C(=O)CCCC2=O)c([N+](=O)[O-])c1 [mesotrione] here?
Its IC50 is 396 ± 48 nM.

Which IC50 does the source give for CS(=O)(=O)c1ccc(C(=O)C2C(=O)CCCC2=O)c(Cl)c1 [sulcotrione] here?
The IC50 was 187 ± 37 nM.

How did the IC50 turn out when CS(=O)(=O)c1ccc(C(=O)C2C(=O)CCCC2=O)c(Cl)c1COCC(F)(F)F [tembotrione] was run?
Its IC50 is 610 ± 15 nM.
